The values below come from PubChem BioAssay (NCI).

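Results reflect a 48-hour exposure of cells in 96-well plates to compound at five concentrations. At the GI50, growth is halved. At the TGI there is no net growth.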 Bounds are passed on as bounds.

Among the test systems are MDA-MB-435; HOP-62 NSCLC; OVCAR-3 ovarian; HCT-15 colon; HT29 colon; UACC-62 melanoma; NCI-H23 lung; IGROV1 ovarian; HCC-2998 colon; BT-549 breast.
Holding throughout (assay): DTP human tumour cell line panel, 48 h

`CN(c1ccccc1)c1c2ccccc2nc2[nH]c3ccccc3c12`: the GI50 with MDA-MB-435 is 3.26 µM; with HOP-62 NSCLC, 1.96 µM; in the experiment with OVCAR-3 ovarian it was 2 µM; with HCT-15 colon, 2.73 µM; in the experiment on HT29 colon it was 3.83 µM; in the experiment with UACC-62 melanoma, 1.5 µM. Further, the GI50 with NCI-H23 lung was 6.4 µM; in the experiment on IGROV1 ovarian, 1.79 µM; with HCC-2998 colon it was 3.05 µM; in the experiment with BT-549 breast, 4.36 µM. Besides, the TGI with MDA-MB-435 was 9.25 µM; in the experiment with HOP-62 NSCLC, 5.97 µM; in the experiment on OVCAR-3 ovarian, 6.01 µM; in the experiment with HCT-15 colon, over 31.9 µM; in the experiment on HT29 colon, over 100 µM; in the experiment on UACC-62 melanoma it was 4.21 µM. Also, the results for the TGI in the experiment with NCI-H23 lung, with HCC-2998 colon and with BT-549 breast were 28.7 µM, 12.1 µM and 13.1 µM, respectively.

Regarding `Oc1c(Br)cc(Cl)cc1C(c1cc(Cl)cc(Br)c1O)C(Cl)(Cl)Cl`, the GI50 in the experiment on MDA-MB-435 was 2.94 µM; with HOP-62 NSCLC, 3.02 µM; in the experiment with OVCAR-3 ovarian, 3.14 µM; in the experiment with HCT-15 colon it was 1.39 µM; in the experiment with HT29 colon, 3.26 µM; in the experiment with UACC-62 melanoma it was 1.94 µM. Further, the GI50 with NCI-H23 lung was 1.8 µM; in the experiment on IGROV1 ovarian it was 3.95 µM; in the experiment on HCC-2998 colon, 2.63 µM; in the experiment with BT-549 breast, 3.22 µM. Besides, the TGI with MDA-MB-435 worked out at 10.1 µM; in the experiment on HOP-62 NSCLC, 9.16 µM; in the experiment on OVCAR-3 ovarian it was 10.1 µM; with HCT-15 colon it was 9.06 µM; in the experiment with HT29 colon, 10.6 µM; with UACC-62 melanoma, 8.99 µM. Besides, the TGI in the experiment on NCI-H23 lung amounted to 7.01 µM; with IGROV1 ovarian it was 16.7 µM; in the experiment with HCC-2998 colon, 8.48 µM; in the experiment with BT-549 breast, 10.1 µM.

For orientation: GI50 means the concentration giving 50% growth inhibition. Broadly, the TGI is the concentration at which net growth stops.
